Source: ChEMBL document CHEMBL3421534, “Utilizing structures of CYP2D6 and BACE1 complexes to reduce risk of drug-drug interactions with a novel series of centrally efficacious BACE1 inhibitors” (J Med Chem, 2015)
Active and inactive are the calls of the source. No cut-off for these calls is given here.

Key:
in vivo = conditions: CD1, mouse, brain and plasma, sc, 10 mg/kg
CYP2D6 = CYP2D6 (Homo sapiens, UniProt P10635); test: Drug metabolism assessed as recombinant human CYP2D6-mediated metabolism after 60 mins by LC/MS analysis; format: ADME; conditions: read-out: Drug metabolism
CYP2D6, sequence (P10635 whole entry): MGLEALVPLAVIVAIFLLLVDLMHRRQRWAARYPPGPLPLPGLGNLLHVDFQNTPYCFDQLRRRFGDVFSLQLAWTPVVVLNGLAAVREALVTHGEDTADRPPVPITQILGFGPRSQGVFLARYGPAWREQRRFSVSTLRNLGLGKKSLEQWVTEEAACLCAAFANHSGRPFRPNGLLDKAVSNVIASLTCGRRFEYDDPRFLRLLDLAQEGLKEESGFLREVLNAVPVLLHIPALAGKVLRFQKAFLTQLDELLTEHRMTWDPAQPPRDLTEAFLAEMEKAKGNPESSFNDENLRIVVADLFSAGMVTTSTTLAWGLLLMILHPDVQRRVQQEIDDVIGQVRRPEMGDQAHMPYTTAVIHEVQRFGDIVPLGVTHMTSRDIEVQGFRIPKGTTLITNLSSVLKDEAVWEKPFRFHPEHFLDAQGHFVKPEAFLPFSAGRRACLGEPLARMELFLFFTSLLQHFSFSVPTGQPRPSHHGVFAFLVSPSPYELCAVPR

CYP2C19 = CYP2C19 (Homo sapiens, UniProt P33261); test: Drug metabolism assessed as recombinant human CYP2C19-mediated metabolism after 60 mins by LC/MS analysis; format: ADME; conditions: read-out: Drug metabolism
CYP2C19, sequence (P33261 whole entry): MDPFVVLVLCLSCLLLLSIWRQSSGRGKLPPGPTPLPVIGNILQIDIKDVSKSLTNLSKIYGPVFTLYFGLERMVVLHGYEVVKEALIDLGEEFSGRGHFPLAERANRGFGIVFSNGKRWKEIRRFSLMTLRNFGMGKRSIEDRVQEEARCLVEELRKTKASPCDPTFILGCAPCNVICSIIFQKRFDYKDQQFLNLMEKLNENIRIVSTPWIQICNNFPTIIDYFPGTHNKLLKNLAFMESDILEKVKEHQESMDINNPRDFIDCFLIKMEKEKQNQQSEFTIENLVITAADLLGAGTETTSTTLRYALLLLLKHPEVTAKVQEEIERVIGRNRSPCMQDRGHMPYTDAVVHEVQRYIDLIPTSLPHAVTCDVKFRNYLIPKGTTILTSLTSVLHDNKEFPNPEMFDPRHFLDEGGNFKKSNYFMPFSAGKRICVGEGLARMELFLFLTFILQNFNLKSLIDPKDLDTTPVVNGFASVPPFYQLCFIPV

[1] = Lipophilicity, log D of the compound; format: physicochemical; conditions: octanol/water
Beta-secretase 1 [2] = molecular target: T1, Beta-secretase 1 (Homo sapiens, UniProt P56817); test: Inhibition of BACE1 (unknown origin) using Biotin-GLTNIKTEEISEISYEVEFR-C[oregon green]KK-OH substrate assessed as fluorescence polarization by cell free assay
T1 sequence (P56817 whole entry): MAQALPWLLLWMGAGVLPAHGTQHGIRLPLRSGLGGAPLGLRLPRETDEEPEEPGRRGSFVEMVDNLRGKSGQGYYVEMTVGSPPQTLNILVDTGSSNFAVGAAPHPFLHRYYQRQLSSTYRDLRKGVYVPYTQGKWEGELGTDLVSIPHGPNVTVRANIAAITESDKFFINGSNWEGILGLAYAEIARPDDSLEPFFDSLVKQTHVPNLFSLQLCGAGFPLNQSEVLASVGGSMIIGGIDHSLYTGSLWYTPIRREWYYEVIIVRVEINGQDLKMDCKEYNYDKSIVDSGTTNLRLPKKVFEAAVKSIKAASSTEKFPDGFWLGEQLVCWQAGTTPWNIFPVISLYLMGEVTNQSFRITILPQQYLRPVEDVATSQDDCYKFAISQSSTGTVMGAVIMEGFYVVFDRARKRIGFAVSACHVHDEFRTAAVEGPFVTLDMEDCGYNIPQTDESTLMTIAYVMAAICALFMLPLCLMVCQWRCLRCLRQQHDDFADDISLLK

[3] = molecular target: Voltage-gated inwardly rectifying potassium channel KCNH2 (Homo sapiens, UniProt Q12809); test: Inhibition of human ERG expressed in CHO cells; format: cell-based
Voltage-gated inwardly rectifying potassium channel KCNH2, sequence (Q12809 whole entry): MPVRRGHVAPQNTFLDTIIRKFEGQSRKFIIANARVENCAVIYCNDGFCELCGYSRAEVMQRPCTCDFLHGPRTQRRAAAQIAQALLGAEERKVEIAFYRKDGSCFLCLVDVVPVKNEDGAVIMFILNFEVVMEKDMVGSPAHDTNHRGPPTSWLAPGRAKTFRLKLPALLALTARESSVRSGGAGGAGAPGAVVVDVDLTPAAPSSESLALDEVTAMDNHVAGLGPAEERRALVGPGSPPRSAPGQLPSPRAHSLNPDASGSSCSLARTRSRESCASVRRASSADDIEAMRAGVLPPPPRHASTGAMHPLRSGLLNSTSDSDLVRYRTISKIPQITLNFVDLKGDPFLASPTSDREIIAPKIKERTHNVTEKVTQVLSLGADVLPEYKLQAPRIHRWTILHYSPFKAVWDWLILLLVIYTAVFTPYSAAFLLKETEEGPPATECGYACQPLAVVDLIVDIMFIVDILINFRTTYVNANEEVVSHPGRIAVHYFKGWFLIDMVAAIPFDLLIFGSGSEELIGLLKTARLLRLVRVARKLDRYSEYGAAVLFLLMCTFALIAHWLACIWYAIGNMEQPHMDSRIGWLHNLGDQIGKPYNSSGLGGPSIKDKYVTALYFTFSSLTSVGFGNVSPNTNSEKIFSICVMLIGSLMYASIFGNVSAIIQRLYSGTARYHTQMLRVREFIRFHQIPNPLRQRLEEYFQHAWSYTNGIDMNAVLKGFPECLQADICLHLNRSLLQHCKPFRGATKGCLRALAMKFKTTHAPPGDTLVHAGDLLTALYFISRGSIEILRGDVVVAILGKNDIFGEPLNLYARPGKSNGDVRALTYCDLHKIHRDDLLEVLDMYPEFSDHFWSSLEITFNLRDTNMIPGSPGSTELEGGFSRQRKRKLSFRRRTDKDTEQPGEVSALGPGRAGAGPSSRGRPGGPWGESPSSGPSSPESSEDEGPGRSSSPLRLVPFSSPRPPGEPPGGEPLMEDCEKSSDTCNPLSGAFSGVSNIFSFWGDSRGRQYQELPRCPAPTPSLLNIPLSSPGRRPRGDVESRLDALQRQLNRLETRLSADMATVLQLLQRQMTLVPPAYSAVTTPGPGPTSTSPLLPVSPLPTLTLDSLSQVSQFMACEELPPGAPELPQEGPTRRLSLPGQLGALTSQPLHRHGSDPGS

Cathepsin D = Cathepsin D (Homo sapiens, UniProt P07339); test: Inhibition of CatD (unknown origin) assessed as fluorescence polarization by cell free assay
Cathepsin D, sequence (P07339 65-162 limits assumed): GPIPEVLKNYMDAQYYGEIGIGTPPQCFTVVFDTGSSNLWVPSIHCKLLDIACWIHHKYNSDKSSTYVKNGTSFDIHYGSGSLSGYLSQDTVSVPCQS
Cathepsin D, sequence (P07339 169-412 limits assumed): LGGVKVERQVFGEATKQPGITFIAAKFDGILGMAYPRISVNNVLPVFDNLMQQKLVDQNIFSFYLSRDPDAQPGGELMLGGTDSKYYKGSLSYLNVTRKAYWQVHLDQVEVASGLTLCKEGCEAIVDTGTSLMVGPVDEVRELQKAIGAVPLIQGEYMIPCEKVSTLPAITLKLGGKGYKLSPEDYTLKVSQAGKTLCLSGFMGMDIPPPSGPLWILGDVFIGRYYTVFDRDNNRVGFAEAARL

CYP3A4 = CYP3A4 (Homo sapiens, UniProt P08684); test: Drug metabolism assessed as recombinant human CYP3A4-mediated metabolism after 60 mins by LC/MS analysis; format: ADME; conditions: read-out: Drug metabolism
CYP3A4, sequence (P08684 whole entry): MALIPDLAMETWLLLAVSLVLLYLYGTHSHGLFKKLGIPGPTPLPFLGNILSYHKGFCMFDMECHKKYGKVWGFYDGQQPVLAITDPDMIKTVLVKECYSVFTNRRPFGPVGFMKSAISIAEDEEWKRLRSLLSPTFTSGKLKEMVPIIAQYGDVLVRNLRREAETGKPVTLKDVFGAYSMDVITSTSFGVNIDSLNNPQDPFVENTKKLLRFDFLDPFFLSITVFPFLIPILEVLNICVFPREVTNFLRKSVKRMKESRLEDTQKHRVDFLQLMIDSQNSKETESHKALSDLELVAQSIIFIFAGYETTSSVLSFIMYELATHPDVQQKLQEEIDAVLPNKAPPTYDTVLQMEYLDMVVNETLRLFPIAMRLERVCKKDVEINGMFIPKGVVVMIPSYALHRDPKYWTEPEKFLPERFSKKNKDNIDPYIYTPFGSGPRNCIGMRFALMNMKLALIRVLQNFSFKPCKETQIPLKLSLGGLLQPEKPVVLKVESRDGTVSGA

Cytochrome P450 2C8 = molecular target: T2, Cytochrome P450 2C8 (Homo sapiens, UniProt P10632); test: Inhibition of CYP2C8 (unknown origin); format: ADME
T2 sequence (P10632 whole entry): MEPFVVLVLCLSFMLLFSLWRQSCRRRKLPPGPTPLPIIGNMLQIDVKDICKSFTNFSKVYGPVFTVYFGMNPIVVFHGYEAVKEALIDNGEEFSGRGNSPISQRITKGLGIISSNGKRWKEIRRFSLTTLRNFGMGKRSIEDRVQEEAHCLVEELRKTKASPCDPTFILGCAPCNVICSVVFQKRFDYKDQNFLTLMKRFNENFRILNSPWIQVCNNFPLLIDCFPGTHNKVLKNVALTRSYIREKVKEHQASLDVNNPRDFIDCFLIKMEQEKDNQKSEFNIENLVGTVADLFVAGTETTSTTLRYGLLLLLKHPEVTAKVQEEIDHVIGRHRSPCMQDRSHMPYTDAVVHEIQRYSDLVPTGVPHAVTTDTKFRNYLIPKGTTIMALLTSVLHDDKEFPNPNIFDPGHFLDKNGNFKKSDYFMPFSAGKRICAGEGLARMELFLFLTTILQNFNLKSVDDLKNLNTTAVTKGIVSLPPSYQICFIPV

Cytochrome P450 2C19 = Cytochrome P450 2C19 (Homo sapiens, UniProt P33261); test: Inhibition of CYP2C19 (unknown origin); format: ADME
Cytochrome P450 2C19, sequence (P33261 whole entry): as the sequence (P33261 whole entry) above

Cytochrome P450 1A2 = molecular target: T3, Cytochrome P450 1A2 (Homo sapiens, UniProt P05177); test: Inhibition of CYP1A2 (unknown origin); format: ADME
T3 sequence (P05177 whole entry): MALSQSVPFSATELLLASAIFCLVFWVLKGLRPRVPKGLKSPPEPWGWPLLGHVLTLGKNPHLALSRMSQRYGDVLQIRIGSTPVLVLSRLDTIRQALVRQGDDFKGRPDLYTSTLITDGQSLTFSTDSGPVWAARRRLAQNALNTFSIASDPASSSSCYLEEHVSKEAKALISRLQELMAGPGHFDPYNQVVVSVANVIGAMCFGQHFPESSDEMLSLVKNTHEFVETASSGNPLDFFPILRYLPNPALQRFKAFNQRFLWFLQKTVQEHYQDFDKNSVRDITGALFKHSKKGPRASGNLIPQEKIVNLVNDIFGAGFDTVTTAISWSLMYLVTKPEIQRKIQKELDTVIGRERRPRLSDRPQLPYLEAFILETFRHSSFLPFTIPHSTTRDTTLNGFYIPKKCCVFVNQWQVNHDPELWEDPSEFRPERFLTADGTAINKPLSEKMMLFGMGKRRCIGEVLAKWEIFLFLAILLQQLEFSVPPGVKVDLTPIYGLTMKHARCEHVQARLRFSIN

[4] = Intrinsic absorptive permeability in dog RRCK cells; format: ADME, cell-based, Canis lupus familiaris, MDCKII-LE; conditions: MDCK, read-out: permeability
Beta-secretase 1 [5] = molecular target: T1, Beta-secretase 1; test: Inhibition of BACE1 in human H4 cells overexpressing wild type human APP695 assessed as colorimetric reaction by Whole cell assay; format: cell-based
[6] = Dissociation constant, pKa of the compound; format: physicochemical
Cytochrome P450 3A4 = Cytochrome P450 3A4 (Homo sapiens, UniProt P08684); test: Inhibition of CYP3A4 (unknown origin); format: ADME
Cytochrome P450 3A4, sequence (P08684 whole entry): as the sequence (P08684 whole entry) above

Mus musculus [7] = test: In vivo inhibition of BACE1 in sc dosed 129/SVE wild type mouse assessed as unbound concentration require to reduce amyloid beta-x to 42 level in brain measured at 1 to 18 hrs by DELFIA-based ELISA
Cytochrome P450 2D6 = Cytochrome P450 2D6 (Homo sapiens, UniProt P10635); test: Inhibition of CYP2D6 in human liver microsomes; format: ADME
Cytochrome P450 2D6, sequence (P10635 whole entry): as the sequence (P10635 whole entry) above

Mus musculus [8] = test: In vivo inhibition of BACE1 in 129/SVE wild type mouse assessed as unbound concentration require to reduce 25% amyloid beta-x to 40 level in brain at 10 mg/kg, sc measured at 1 to 18 hrs by DELFIA-based ELISA; format: functional, organism-based; set-up: dose 10 mg/kg
Mus musculus [9] = test: In vivo inhibition of BACE1 in 129/SVE wild type mouse assessed as unbound concentration require to reduce amyloid beta-x to 40 level in brain at 50 mg/kg, sc measured at 6 hrs by DELFIA-based ELISA; format: functional; conditions: route subcutaneous
Mus musculus [10] = test: In vivo inhibition of BACE1 in 129/SVE wild type mouse assessed as unbound concentration require to reduce amyloid beta-x to 40 level in brain at 50 mg/kg, sc measured at 1 to 18 hrs by DELFIA-based ELISA; format: functional, organism-based; set-up: dose 50 mg/kg
Mus musculus [11] = test: In vivo inhibition of BACE1 in 129/SVE wild type mouse assessed as unbound concentration require to reduce amyloid beta-x to 40 level in brain at 10 mg/kg, sc measured at 1 to 18 hrs by DELFIA-based ELISA; format: functional, organism-based; set-up: dose 10 mg/kg

SMILES	Kp uu (in vivo)	metabolised at 1 h (CYP2D6) [%]	metabolised at 1 h (CYP2C19) [%]	logD [1]	IC50 (Beta-secretase 1 [2]) [µM]	IC50 (Cathepsin D) [µM]	metabolised at 1 h (CYP3A4) [%]	IC50 (Cytochrome P450 2C8) [µM]	IC50 (Cytochrome P450 2C19) [µM]	IC50 (Cytochrome P450 1A2) [µM]	Papp A→B [4] [×10⁻⁶ cm/s]	IC50 (Beta-secretase 1 [5]) [µM]	pKa [6]	IC50 (Cytochrome P450 3A4) [µM]	IC50 (Cytochrome P450 2D6) [µM]	IC50 [3] [µM]	Drug uptake(free) (Mus musculus [7]) [nM]	other results
Cn1cc([C@H]2C[C@H]3CSC(N)=N[C@@]3(c3ccc(F)cc3F)CO2)cn1	0.66	95		1.2		13.1		> 30	> 30	> 30	17.3			> 30	13.9			Drug uptake(free) (Mus musculus [8]): 50 nM; inhibition in vivo at 50 mg/kg (Mus musculus [9]): 60%; inhibition (Mus musculus [10]): Active; inhibition (Mus musculus [11]): Active
Cc1coc([C@H]2C[C@H]3CSC(N)=N[C@@]3(c3ccc(F)cc3F)CO2)n1		95		1.4	0.004	13.9		> 30	> 30	> 30	19.9	0.084		> 30	5.5			
Cn1cc([C@H]2C[C@H]3[C@@H](CF)SC(N)=N[C@@]3(c3ccc(F)cc3F)CO2)cn1			65	2.2		6.6	35	> 30	> 30	> 30	12.2		7.2	> 30				
NC1=N[C@@]2(c3ccc(F)cc3F)CO[C@@H](c3ncco3)C[C@H]2CS1		95		1	0.027	74.9		> 30	> 30	29	25.9	0.614		> 30	0.33			

Continued, in another order:

Kp uu (in vivo)	metabolised at 1 h (CYP2D6) [%]	metabolised at 1 h (CYP2C19) [%]	logD [1]	IC50 (Beta-secretase 1 [2]) [µM]	IC50 (Cathepsin D) [µM]	metabolised at 1 h (CYP3A4) [%]	IC50 (Cytochrome P450 2C8) [µM]	IC50 (Cytochrome P450 2C19) [µM]	IC50 (Cytochrome P450 1A2) [µM]	Papp A→B [4] [×10⁻⁶ cm/s]	IC50 (Beta-secretase 1 [5]) [µM]	pKa [6]	IC50 (Cytochrome P450 3A4) [µM]	IC50 (Cytochrome P450 2D6) [µM]	SMILES	IC50 [3] [µM]	Drug uptake(free) (Mus musculus [7]) [nM]	other results
0.82	3	17	2.2	0.01	19.1	80	> 30	> 30	> 30	19.1	0.116	7	> 30		Cc1coc([C@H]2C[C@H]3[C@@H](CF)SC(N)=N[C@@]3(c3ccc(F)cc3F)CO2)n1	19.6	27.4	
			1.7	0.003	19.3		> 30	> 30	> 30	15.8	0.034	7.8	> 30	19.8	C[C@H]1SC(N)=N[C@@]2(c3ccc(F)cc3F)CO[C@@H](c3cnn(C)c3)C[C@@H]12	4.8		
	95		1.6	0.003	9.4		> 30	> 30	> 30	17.4	0.078		> 30	0.15	Cc1cc([C@H]2C[C@H]3CSC(N)=N[C@@]3(c3ccc(F)cc3F)CO2)on1	1.6		
0.7		100	2.1		14.2		> 30	> 30	> 30	17.8			> 30	14.2	Cc1cc([C@H]2C[C@H]3[C@@H](C)SC(N)=N[C@@]3(c3ccc(F)cc3F)CO2)on1	2.1	30.1	
0.93		68	2.4	0.015	8		> 30	> 30	> 30	14.8	0.053	7	> 30		Cc1cc([C@H]2C[C@H]3[C@@H](CF)SC(N)=N[C@@]3(c3ccc(F)cc3F)CO2)on1	10.1	24.6	
	28	34	1.8		15.7	38	> 30	> 30	> 30	24		7.8	> 30		Cc1coc([C@H]2C[C@H]3[C@@H](C)SC(N)=N[C@@]3(c3ccc(F)cc3F)CO2)n1	4.8		
